Square brackets hold non-standard residues; d marks the D form. Peptide text beside a SMILES is read from it. Phe(ol) = N[C@H](CO)Cc1ccccc1; Leu(ol) = CC(C)C[C@H](N)CO; dIva = CC[C@@](C)(N)C(=O)O; Aib = CC(C)(N)C(=O)O
Experiments:
Dd2 = assay: Cross resistance screening (1536-well SYBR Green I), parental line; assay type: cell-based, P. falciparum; conditions: Winzeler laboratory cross resistance screen, 0.3% parasitemia, 2.5% hematocrit, 72 h, mean ± SEM of 3 biological replicates
Description: (§1) Parasites grown in the Winzeler laboratory for screening and drug selections were maintained in RPMI 1640 medium supplemented with 0.25% Albumax I, 26 mM sodium bicarbonate, 0.1 mM hypoxanthine, and […] gentamicin. Human O+ whole blood obtained from the Blood Bank of The Scripps Research Institute was used for cultivation (human subjects IRB number: 125933). Blood-stage cultures were kept at 37°C with 5% CO2, 3% O2, and 92% N2. Monitoring of parasitemia and parasite morphology was performed using microscopic evaluation of thin blood smears that were first fixed with methanol, and then stained with Giemsa.
(§2) Cross resistance screening was performed with 0.3% parasitemia, 2.5% hematocrit, dispensed into 1536-well black, clear bottom plates with pre-spotted compound using a MultiFloTM Microplate dispenser (BioTek) at a volume of 8 μL/well. Plates where then incubated at 37°C for 72 h, after which 10× SYBR Green I (Invitrogen) in a lysis buffer (20 mM Tris/HCl, 5 mM EDTA, 0.16% (w/v) saponin, 1.6% (v/v) […]) was then added using a MultiFloTM Microplate dispenser (BioTek) at a volume of 2 μL/well. After 24 h incubation at room temperature, viability was measured via fluorescence using the EnVision® Multilabel Reader (PerkinElmer) (485 nm excitation, 530 nm emission). IC50 values were determined in CDD vault (https://www.collaborativedrug.com/).

[1] = test system: P. falciparum 3D7 transcriptome; assay: RNASeq analysis of treated culture; assay type: cell-based; conditions: 3D7, 1 h, EC50 concentration, vs vehicle
Description: P. falciparum 3D7 culture was synchronized as previously described[64] by combination of MACS column (Mitenyi Biotic, Auburn, CA)[65] and 5% sorbitol.[66] In brief, asynchronous culture with a majority ring stage population was centrifuged, pelleted, and resuspended in 5% sorbitol and incubated at room temp for 10 min. Parasites were then washed with culture media and returned to the culture incubator. For MACS column, columns were rinsed once with RPMI prior to parasite addition. After flow-through was complete, parasites on the column were eluted onto culture plates and returned to the culture incubator. […] RNA was then extracted using Direct-zol™ RNA Miniprep Plus (Zymo Research Corporation, Irvine, CA.) following manufacturers protocols. In brief, culture was lysed with 0.1% saponin and incubated for 5 min prior to centrifuging at 900 x g for 6 min at 4°C. Cells were washed once with RPMI then once with PBS before resuspension in triazole reagent. Samples were mixed vigorously for 5 min, centrifuged at 16,000 x g for 1 min, then transferred to a RNase free tube, and an equal volume of EtOH was added. After mixing, sample was loaded onto column and centrifuged at 16,000 x g for 30 sec then washed with pre-wash buffer. Columns were incubated with DNase buffer for 15 min then washed with pre-wash buffer. Two more wash steps were performed before allowing any excess EtOH to dry for 2 min. Finally, columns were transferred to a new RNase free tube in which RNA was eluted with RNase free water.
Preliminary integrity and concentration determination was performed via nanodrop and RNA gel electrophoresis, prior to a full integrity check via Agilent Technologies 2100 Bioanalyzer. After rRNA depletion, RNA fragmentation was performed using elevated temperatures and divalent cation buffers. Library preparation was done using the Illumina TruSeq-stranded-total-RNA-sample preparation protocol, with Agilent Technologies 2100 Bioanalyzer High Sensitivity DNA Chip for quality control, and Illumina’s NovaSeq 6000 sequencing system for paired-ended sequencing. For transcript assembly, Cutadapt[71] and LC Sciences in house perl scripts were used to remove low quality or undetermined bases and reads, along with adaptor contamination. Sequence quality was then confirmed using FastQC.[72] Reads were mapped to the P. falciparum genome using Bowtie2[73] and HISAT2,[74] then assembled using StringTie.[75] To assist in the filtering process, the transcriptomes from HZ NPDG-I and the vehicle control were assembled simultaneously to construct a merged transcriptome using perl scripts and gffcompare.[76] Finally, StringTie[75] and edgeR[77] were used to estimate transcript expression levels by calculating FPKM using the following equation: FPKM=totalexonfragments/mappedreads(millions)xexonlength(kB)
To calculate p value, a parametric F-test comparing nested linear models was performed using edgeR.[77] The q-values were also calculated using a Benjamini-Hochberg procedure. Differential expression for mRNA was calculated at the gene level (all transcript isoforms grouped as 1 gene) and the transcript level (all transcript isoforms ranked individually). […] The coding potential of the remaining transcripts was then determined using CPC[78] and CNCI,[79] and transcripts with a CPC score <0.5 and/or CNCI score <0 were removed. […] The predicted cis-targets of the novel lncRNAs were then determined for the coding genes 100,000 bp upstream and downstream with perl script. […]

PfACS_A597 = assay: Cross resistance screening (1536-well SYBR Green I); assay type: cell-based, P. falciparum; conditions: 72 h, mean ± SEM of 3 biological replicates
Description: as §1, §2

PfPI4K_S1320L = assay: as above; assay type: cell-based, P. falciparum; conditions: 72 h, mean ± SEM of 3 biological replicates
Description: as §1, §2

PfCARL_I1139K = assay: as above; assay type: cell-based, P. falciparum; conditions: 72 h, mean ± SEM of 3 biological replicates
Description: as §1, §2

P. falciparum Dd2 = assay: Phenotypic screen: asexual blood stage EC50 determination (SYBR Green I); assay type: cell-based; conditions: asynchronous culture, 1% parasitemia, 1% hematocrit, 72 h, SYBR Green I; mean ± SEM, biological triplicate
Description: Asexual blood stage parasites grown in the Chakrabarti laboratory were cultured based on a protocol by Trager and Jensen[57] with some modifications.[35] Culture was maintained at 4% hematocrit with human A+ whole blood obtained from the Florida OneBlood, in RPMI 1640 supplemented with 25 mM HEPES pH 7.4, 26 mM NaHCO3, 2% dextrose, 15 mg/L hypoxanthine, 25 mg/L gentamycin, and 0.5% Albumax II. Incubator conditions remained at 37°C and 5% CO2, 5% O2, 90% N2, or 95% air. For comparison screening using serum vs Albumax II, culture media was changed from RPMI with 0.5% Albumax II to RPMI with 10% human serum and maintained for a minimum of 2 weeks prior to assay use.
Inhibitor EC50 determination in 3D7 and Dd2 was performed as discussed in,[35] based on established protocols.[60] Assays utilized asynchronous culture at 1% parasitemia, 1% hematocrit. Culture was incubated with compound dilutions for 72 h followed by freezing at −80°C to promote lysis, then thawing and incubation for 45 min–1 h with 1× SYBR Green I in a lysis buffer (20 mM Tris-HCL, 0.08% saponin, 5 mM EDTA, and 0.8% Triton X-100). Fluorescence was read 485 nm excitation, 530 nm emission on a Synergy Neo2 multimode reader (BioTek Winsooki, VT) and EC50 curves were generated using CDD Vault (https://www.collaborativedrug.com/).

CC[C@H](C)[C@H](NC(=O)[C@H](CC(C)C)NC(=O)[C@H](CCC(N)=O)NC(=O)[C@@](C)(CC)NC(C)=O)C(=O)NC(C)(C)C(=O)N1CCC[C@H]1C(=O)N[C@](C)(CC)C(=O)N[C@@H](CC(C)C)C(=O)NC(C)(C)C(=O)N1CCC[C@H]1C(=O)N[C@H](CO)CC(C)C [HZ NPDG-I, harzianin NPDG I] (Ac-[dIva]QLI[Aib]P[dIva]L[Aib]P[Leu(ol)])
EC50 (Dd2): 13 ± 6 nM | RNA-seq log2fc, PF3D7_0106100 [1]: −1.35 | RNA-seq log2fc, PF3D7_0519200.1 [1]: −5.06 | RNA-seq log2fc, PF37D_1419800.1 [1]: −3.23 | RNA-seq log2fc, lncRNA MSTRG.194.1 [1]: 16.51 | RNA-seq log2fc, lncRNA MSTRG.363.2 [1]: 14.54 | EC50 (PfACS_A597): 23 ± 5 nM | EC50 (PfPI4K_S1320L): 13 ± 3 nM | EC50 (PfCARL_I1139K): 8 ± 1 nM

CC(=O)NC(C)(C)C(=O)N1CCC[C@H]1C(=O)NC(C)(C)C(=O)N[C@@H](C)C(=O)NC(C)(C)C(=O)N[C@@H](C)C(=O)N[C@@H](CCC(N)=O)C(=O)NC(C)(C)C(=O)N[C@H](C(=O)NC(C)(C)C(=O)NCC(=O)N[C@@H](CC(C)C)C(=O)NC(C)(C)C(=O)N1CCC[C@H]1C(=O)N[C@H](C(=O)NC(C)(C)C(=O)NC(C)(C)C(=O)N[C@@H](CCC(=O)O)C(=O)N[C@@H](CCC(N)=O)C(=O)N[C@H](CO)Cc1ccccc1)C(C)C)C(C)C [Alamethicin, reference compound] (Ac-[Aib]P[Aib]A[Aib]AQ[Aib]V[Aib]GL[Aib]PV[Aib][Aib]EQ[Phe(ol)]; N-terminus assumed)
EC50 (P. falciparum Dd2): 630 ± 50 nM

From publication PMC10923054, “Antiplasmodial peptaibols act through membrane directed mechanisms” (Cell Chemical Biology, 2024)
